Results on 1 molecule are retold here after patent US9730448B2, “Tetrazolinone compound and use of same” (Sumitomo Chemical Company, Limited, priority 2013, dated 2017).

In the assay the test system is cucumber powdery mildew fungus (Sphaerotheca fuliginea, a QoI-resistant strain, cytochrome b position 143 glycine to alanine). In words: Test Example 6 and Comparative Test Example: control of cucumber powdery mildew (QoI-resistant strain), foliar spray on cucumber. The assay is classed as in vivo. The settings on record: 500 ppm water dilution sprayed on cucumber (SAGAMI HANJIRO); inoculated after air-drying; investigated after 8 days in greenhouse.

Take `Cc1cc(-c2cccs2)ccc1OCc1ccccc1-n1nnn(C)c1=O` [1-{[2-[2-methyl-4-(thiophen-2-yl)phenoxy]methyl]phenyl}-4-methyl-1,4-dihydrotetrazol-5-one]: the “area of lesion spots on the treated plant relative to that on an untreated plant” value is given as at least 70%.
